Measurements reported in patent publication US20150140002A1, “USE OF A PCSK9 INHIBITOR TO TREAT […]” (Sanofi, priority 2013, published 2015).
“And” between values parts separate entries of the source, which are not always exact repeats. Equal entries are not always repeated.

What was measured:
[1] = test system: patients with hypercholesterolemia at moderate cardiovascular (CV) risk; assay: Example 2: safety (TEAEs, laboratory parameters, vital signs)
Source text: The clinical laboratory data consisted of urinalysis and blood analysis, hematology (RBC count, red blood cell distribution width (RDW), reticulocyte count, hemoglobin, hematocrit, platelets, WBC count with differential blood count), standard chemistry (glucose, sodium, potassium, chloride, bicarbonate, calcium, phosphorous, urea nitrogen, creatinine, uric acid, total protein, LDH, albumin, γ Glutamyl Transferase [γGT]), Hepatitis C antibody, liver panel (ALT, AST, ALP, and total bilirubin), and CPK.
Safety endpoints—Vital signs measurement: Vital signs included: HR, systolic and diastolic BP in sitting position.
The safety analysis included all randomized and treated patients. Safety data were analyzed by descriptive statistics.

[2] = test system: patients with hypercholesterolemia at moderate cardiovascular (CV) risk; assay: Example 2: Phase 3 monotherapy trial mAb316P versus ezetimibe, lipid parameters; type: in vivo, human; details: for Lp(a) adjusted mean (SE) % change from baseline to week 24 / TGs adjusted mean (SE) % change from baseline to week 24: combined estimate; for LDL-C (on treatment), mean (SD): ezetimibe arm (n = 51); for LDL-C LS mean (SE) change from baseline (%): baseline to Week 24
Source text: Randomization was stratified according to DM status. […] Patients were followed for 8 weeks after the last visit of the Double Blind Treatment Period (DBTP).
Double-blind treatment period (DBTP)—A randomized, double-blind double dummy study treatment period of 24 weeks. The first injection during the double-blind period was done at the site on the day of randomization (Week 0 [D1]-V3) and as soon as possible after the call to IVRS/IWRS for randomization into the study. The subsequent injections were done by the patient (self-injection) or another designated person (such as spouse, relative, etc.) at a patient-preferred location (home, etc.).
The primary efficacy endpoint was the percent change in calculated LDL-C from baseline to week 24, which is defined as: 100×(calculated LDL-C value at Week 24−calculated LDL-C value at baseline)/calculated LDL-C value at baseline.
Total-C, HDL-C, TG, Apo B, Apo A-1, and Lp (a) were directly measured. LDL-C was calculated using the Friedewald formula at all visits (except Week −1 and Follow Up visit). If TG values exceeded 400 mg/dL (4.52 mmol/L) then the central lab reflexively measured (via the beta quantification method) the LDL-C rather than calculating it. Non-HDL-C was calculated by subtracting HDL-C from the total-C. Ratio Apo B/Apo A-1 was calculated.
The primary endpoint was assessed in the intent-to-treat (ITT) population, which included all randomized patients who had at least 1 calculated LDL-C value at baseline and at one of the planned time points from weeks 4 to 24.
Missing data were accounted for by means of a mixed effect model with repeated measures (MMRM) approach (Siddiqui et al., MMRM vs. LOCF: a comprehensive comparison based on simulation study and 25 NDA datasets”, J Biopharm Stat, vol. 19, pp. 227-246 (2009); National Research Council, “The Prevention and Treatment of Missing Data in Clinical Trials” Panel on Handling Missing Data in Clinical Trials. Committee on National Statistics, Division of Behavioral and Social Sciences and Education. 2010. Washington, D.C.: The National Academies Press; Andersen et al., “On the practical application of mixed effects models for repeated measures to clinical trial data”, Pharm Stat., vol. 12, pp. 7-16 (2013)). For the ITT analysis, all available measurements at planned time points from weeks 4 to 24 (meaning week 4, 8, 12, 16, and 24), whatever their status on or off-treatment, were used in the MMRM. One MMRM model was used for LDL-C to provide least-squares means estimates and comparison between treatment arms at weeks 24 and 12. Further details on the model are given below. For the on-treatment analysis, all available on-treatment measurements (i.e. up to 21 days after last injection/3 days after last capsule, whichever comes first) at planned time points from weeks 4 to 24 were used in the MMRM model. In the same way as for the ITT analysis, one model was used to provide estimates and comparison at week 24 and week 12 for the on-treatment analysis. Continuous key secondary endpoints other than Lp(a) and triglycerides were analyzed in a similar fashion as the primary endpoint and description of the statistical methodology for secondary endpoints and subgroup analysis is provided below.
Outputs from the model were the baseline-adjusted least-squares (LS) mean estimates at week 24 for both treatment groups with their corresponding standard error (SE). Appropriate contrast statement was used to test the difference between these estimates at the 2-sided 5% alpha level.
To analyze the key secondary endpoints, a hierarchical procedure was used to control type I error and handle multiplicity. Secondary efficacy endpoints were tested sequentially using the order given above, in the intent-to-treat population.

## O=C1[C@H](CC[C@H](O)c2ccc(F)cc2)[C@@H](c2ccc(O)cc2)N1c1ccc(F)cc1 [ezetimibe, reference compound]
[1]; Laboratory parameters
  Alanine aminotransferase (ALT) ≧3× ULN: 0/51
  Alanine aminotransferase (ALT) ≧3× ULN (if baseline ALT <ULN) or ≧2× the baseline value (if baseline ALT ≧ULN): 0/51
  Albumin ≦25 g/L: 0/50
  Aspartate aminotransferase >3× ULN: 0/51
  Glucose ≦70 mg/dL (3.9 mmol/L) and <LLN: 0/50
[1]; Safety Population
  Patients with any TEAE: 40 (78.4) n (%)
  Patients with any TEAE leading to death: 0 n (%)
  Patients with any TEAE leading to treatment discontinuation: 4 (7.8) n (%)
  Patients with any treatment emergent SAE: 1 (2.0) n (%)
[1]; TEAE
  Arthralgia: 2 (3.9) n (%)
  Diarrhea: 2 (3.9) n (%)
  Dizziness: 3 (5.9) n (%)
  Headaches: 2 (3.9) n (%)
  Nasopharyngitis: 8 (15.7) n (%)
  Nausea: 3 (5.9) n (%)
  Upper respiratory tract infection: 5 (9.8) n (%)
  Urinary tract infection: 3 (5.9) n (%)
  back pain: 3 (5.9) n (%)
[1]; TEAEs of interest
  General disorders and administration site conditions: 5 (9.8) n (%)
  Injection site reaction: 2 (3.9) n (%)
  Muscle disorders: 2 (3.9) n (%)
  Musculoskeletal and connective tissue disorders: 11 (21.6) n (%)
  Musculoskeletal and connective tissue disorders NEC: 5 (9.8) n (%)
  Musculoskeletal pain: 1 (2.0) n (%)
  Myalgia: 1 (2.0) n (%)
  muscle spasms: 1 (2.0) n (%)
[1]; discussion
  Muscle-related AEs: 4%
[1]; disposable autoinjector
  injection related AEs: < 4%
[1]; in vivo
  Muscle-related TEAEs: 2 (4%) patients (%)
  overall percentage of patients who experienced at least one TEAE: 78%
  patients with abnormalities in vital signs (blood pressure, heart rate): ≤ 2 patients
  patients with blood glucose >126 mg/dL (7 mmol/L): 1 patients
  patients with elevated creatine kinase levels over 10 times the upper limit of normal: 1 patient
[1]; mostly respiratory
  TEAE class infection: 39.2%
[2]; ITT
  Apo A-1 LS mean (SE) % change from baseline to week 24: −0.6 (1.6) %
  Apo B LS mean (SE) % change from baseline to week 24: −11.0 (2.4) %
  HDL-C LS mean (SE) % change from baseline to week 24: 1.6 (1.9) %
  Non-HDL-C LS mean (SE) % change from baseline to week 24: −15.1 (2.9) %
  Total cholesterol LS mean (SE) % change from baseline to week 24: −10.9 (2.2) %
  Lp(a) adjusted mean (SE) % change from baseline to week 24: −12.3 (3.8) %
  TGs adjusted mean (SE) % change from baseline to week 24: −10.8 (4.3) %
  LDL-C LS mean (SE) change from baseline (%): −15.6%
[2]; ITT, excluding post up-titration data from patients up-titrated having LDL-C <100 mg/dL
  LDL-C LS mean (SE) Week 24 change from baseline (%): −15.6%
[2]; ITT, given as reduction
  LS mean (SE) percent reductions in LDL-C from baseline to week 24: 16 (3) %
[2]; ITT, mAb316P 75 mg Q2W before up-titration, ezetimibe 10 mg daily
  LDL-C reduction at week 12: 20 (3) % and 20%
[2]; On-treatment
  Apo A-1 LS mean (SE) % change from baseline to week 24: −0.7 (1.6) %
  Apo B LS mean (SE) % change from baseline to week 24: −11.5 (1.9) %
  HDL-C LS mean (SE) % change from baseline to week 24: 1.7 (1.9) %
  Non-HDL-C LS mean (SE) % change from baseline to week 24: −16.6 (1.9) %
  Total cholesterol LS mean (SE) % change from baseline to week 24: −12.0 (1.6) %
  Lp(a) adjusted mean (SE) % change from baseline to week 24: −12.3 (4.0) %
  TGs adjusted mean (SE) % change from baseline to week 24: −12.7 (4.2) %
  LDL-C LS mean (SE) change from baseline (%): −17.2%
[2]; Week 4
  LDL-C (on treatment), mean (SD): 109.9 (22.4) mg/dL
[2]; Week 12
  LDL-C (on treatment), mean (SD): 109.8 (25.2) mg/dL
[2]; Week 24
  LDL-C (on treatment), mean (SD): 113.4 (25.0) mg/dL
[2]; before up-titration, ITT
  estimated proportions of patients with LDL-C reductions ≧50% at week 12: 3%
[2]; before up-titration, on-treatment analysis
  proportions of patients with LDL-C reductions ≧50% at week 12: 2%
[2]; current study, discussion
  reduction in Lp(a): 12%
[2]; on-treatment analysis, given as reduction
  LS mean (SE) LDL-C reductions from baseline to week 24: 17 (2) %
[2]; on-treatment analysis, mAb316P 75 mg Q2W
  LDL-C reduction at week 12: 20 (2) % and 20%
[2]; summary, mAb316P 75mg Q2W arm, monotherapy population
  reduction in LDL-C at 12 weeks: 20%
